Laboratory results from patent US9867832B2, “Pharmaceutical composition for inhibiting immune response through inducing differentiation into regulator T cells and promoting proliferation of regulator T cells” (LG CHEM, LTD., priority 2013, dated 2018).

Key:
GVHD mouse model = test: Allogeneic immune response (GVHD) mouse model: survival, body weight, GVHD clinical score, large intestine histology; assay type: in vivo
Method: 6-8 week-old C57BL/6 (H-2kb) mouse and BALB/c (H-2kd) mouse which have different MHC class from each other were purchased from OrientBio Co., Ltd. After passing the regulation of the management committee of the Department of Laboratory Animal, The Catholic University of Korea, the mice were used under its care. A recipient mouse BALB/c (H-2kd) was irradiated with systemic radiation at 800 cGy. Within 24 hours, bone marrow 5×10^6 cells and spleen 5×10^6 cells isolated from a donor mouse C57BL/6 […] were transplanted into the allogeneic recipient mouse intravenously to induce a graft-versus-host rejection reaction model. The bone marrow-transplanted mouse was observed and evaluation was made of the following: weight, pose, activity, hair condition and skin density with evaluation criteria on the total ten-point scale, two points per each item (Table 1).
4 μm of serial sections were obtained from the paraffin-embedded tissue, treated with xylene three times to remove paraffin, and then hydrated stepwise in 95%, 90% and 70% ethanol. After removing endogenous peroxidase in 0.5% hydrogen peroxide, the specimen was treated with normal goat serum for 30 minutes and then reacted with primary antibody which was diluted with 3% bovine serum albumin (BSA) in PBS according to the manufacturer's instruction for 1 hour. After primary antibody reaction to the expressed proteins directed to genes showing the difference of expression in the above study, the specimen was washed with Tris-buffered saline (TBS) three times, reacted with 5 μg/ml biotinylated anti-mouse/anti-rabbit IgG diluted in 3% BSA for 30 minutes and washed with TBS three times. The specimen was kept in 3 μg/ml horseradish peroxidase streptoavidin for 30 minutes, color development was carried out by the use of DAB and hydrogen peroxide, and counter staining was carried out with Meyer's hematoxylin or 1% methyl green. […]

[1] = system: reactive oxygen species (ROS); test: Measurement of reactive oxygen species (ROS) in spleen cells of GVHD mice; assay type: in vivo; settings: GVHD mouse spleen cells; 7th and 14th day; dose- and time-dependent; vs control group
Method: Animals of each group were sacrificed, and their spleens were isolated. After single-cell isolation, the obtained cells were washed with phosphate-buffered saline (PBS) twice. The reaction with 3 μM carboxy-H2DCFDA reagent was carried out at 37° C. for 10 minutes. After washing with PBS, the analysis was carried out with a flow cytometer at 540 nm.
Accordingly, the present inventors observed immune response by oxidative stress via GVHD mouse model.

HMGB1 = test: Real-time PCR of HMGB1 expression in spleen cells of GVHD mice; assay type: in vivo; settings: GVHD mouse spleen cells, 7th and 14th day, time-dependent, vs control group
Method: Total RNA was extracted from the cells by the use of TRIzol reagent. 1 μg of RNA was reacted with AMV reverse transcriptase and random hexamer at 45° C. for 1 hour to synthesize cDNA. Real-time PCR was carried out by the use of a mixture in which 1 μg of cDNA as a template, primer S, primer AS and distilled water were mixed, and SYBR Green. The PCR was carried out by the use of I-IMGB 1 (5′-GATGGGCAAAGGAGATCCTAAG-3′ and 5′-TCACTTTTTTGTCTCCCCTTTGGG-3′) with the condition of 35 cycles of at 95° C. for 15 seconds, at 60° C. for 10 seconds and at 72° C. for 30 seconds. Fluorescent data were measured by the use of Rad CFX96 Real-Time System (Bio-Rad Laboratories).
It has been well known that the release of HMGB1 has a possibility of the function for regulating inflammation and immunity. Therefore, in this study the animals of the test group in which GVHD mouse model was treated with the compound of the present invention and the control model was sacrificed, RNA was extracted from spleen cells, and then cDNA was synthesized and a comparative study on the expression of HMGB1 was carried out by real-time PCR.

[2] = system: CD4+CD25+Foxp3+ regulatory T cells; test: Flow cytometry of spleen cells of GVHD mice (regulatory T cells, CD4+IL-4, CD4+IFN-γ); assay type: in vivo; settings: GVHD mouse spleen
Method: Mice were divided into a GVHD group in which (tetrahydropyran-4-yl)-[2-phenyl-5-(1,1-dioxo-thiomorpholin-4-yl)methyl-1H-indol-7-yl]amine (LG Life Sciences Ltd., Daejeon, Korea, hereinafter referred to as “Compound A”) was treated as a test group and a GVHD group in which Compound A was not treated as a control group. The spleens of each group were isolated and single-cell isolation was then carried out. The expression of CD4+CD25+Foxp3+, which is the phenotype of regulatory T cell, and CD4+IFN-γ cells and CD4+IL-4 cells were analyzed by the use of fluorescent monoclonal antibodies and a flow cytometer.
The present inventors found out that in GVHD mouse model, immune transplant rejection was decreased, the production of ROS and HMGB1, and cellular necrosis in tissues were suppressed by the compound of the present invention, so that they intended to observe the possibility of regulating immune response in immune disease animal model. Accordingly, mice of the test group in which the compound of the present invention was treated and the control group were sacrificed, their spleens were isolated, single-cell isolation was carried out, and the function of immune regulation was searched via flow cytometry. As a result, in the group in which the compound of the present invention was treated CD4+CD25+Foxp3+ immune regulatory cells (regulatory T cells) were increased 6 times or more, as compared with the control group. […] In GVHD model, after irradiation of high-dose radiation the transplanted T cells of the donor are activated and proliferated by antigen-presenting cells of the host to secrete IFN-γ which is known as a representative GVHD causing cytokine. […] Therefore, it can be known that the compound of the present invention can suppress immune response by suppressing the activation of the transplanted T cells.

[3] = system: CD4+ T cells isolated from mouse spleen cells; test: In vitro differentiation of CD4+ T cells into regulatory T cells (aCD3, aCD28, TGF-beta); assay type: cell-based
Method: Experimentation for investigating the effect of the compound of the present invention on the differentiation of lymphocyte Th cells was carried out. 5×10^5 CD4+ T cells isolated from mouse spleen cells were dispensed into a 24-well plate coated with 1 μg/ml of anti-CD3 (aCD3), and then treated with 1 μg/ml of […] (aCD28) and 5 ng/ml of TGF-beta to induce the differentiation into regulatory T cells for 3 days. Before the differentiation into regulatory T cells, the compound (tetrahydropyran-4-yl)-[2-phenyl-5-(1,1-dioxo-thiomorpholin-4-yl)methyl-1H-indol-7-yl]amine (hereinafter referred to as “Compound A”) (LG Life Sciences Ltd., Daejeon, Korea) of the present invention was treated with the concentration of 40 μM and 80 μM. For flow cytometry, anti-mouse CD4 PerCP, CD25 APC and FoxP3 PE fluorescence-labeled antibodies were added thereto and reacted at 4° C. for 30 minutes. After washing with PBS, the measurement was carried out with a flow cytometer (FACSCalibur™)
In the course that 5×10^5 CD4^+ T cells isolated from mouse spleen cells were dispensed into a 24-well plate coated with 1 μg/ml of anti-CD3 (aCD3), and then treated with 1 μg/ml of […] (aCD28) and 5 ng/ml of TGF-beta to induce the differentiation into regulatory T cells for 3 days, the groups were divided into (1) 40 μM or 80 μM of Compound A single-treated group, (2) 0.1 μM of retinoic acid (RA) single-treated group, (3) 1 μM of retinal treated group, (4) 0.1 μM of RA and 40 μM or 80 μM of Compound A treated group, and (5) 1 μM of retinal and 40 μM or 80 μM of Compound A treated group, and the effect on the differentiation into regulatory T cells of each group was then compared.

[4] = system: CD4+ T cells isolated from the spleen cells of C57BL/6; test: Differentiation into regulatory T cells in allogeneic immune cells in vitro; assay type: cell-based, mouse; settings: C57BL/6 CD4+ T cells with irradiated BALBc APCs; 5 days; various concentrations
Method: 1×10^6 CD4^+ T cells isolated from the spleen cells of C57BL/6 and BALBc antigen-presenting cells (APCs) irradiated at 20 Gy were added to a 48-well plate and incubated at 37° C. for 5 days. The incubation was carried out under the condition that allogeneic immune response by antigen-presenting cells is induced to the spleen cells, and the treatment with Compound A at various concentrations before incubation was carried out for comparative analysis. The cells were harvested after 5-day incubation, and for flow cytometry anti-mouse CD4 PerCP, CD25 APC and FoxP3 PE fluorescence-labeled antibodies were added thereto and reacted at 4° C. for 30 minutes. After washing with PBS, the measurement was carried out with a flow cytometer (FACSCalibur™).

[5] = system: CD4+CD25+Foxp3+ regulatory T cells; test: Increase of regulatory T cells in in vivo GVHD mouse model (Example 10); settings: intravenous, four times a week for two weeks, spleen flow cytometry
Method: 6-8 week-old C57BL/6 (H-2kb) mouse and BALB/c (H-2kd) mouse which have different MHC class from each other were used. A recipient mouse BALB/c (H-2kd) was irradiated with systemic radiation at 8 Gy. Within 24 hours, bone marrow 5×10^6 cells and spleen 5×10^6 cells isolated from a donor mouse C57BL/6 […] were transplanted into the recipient mouse intravenously to induce graft-versus-host rejection reaction model (GVHD model). Compound A was intravenously injected into the GVHD model four times a week for two weeks. Mice were sacrificed, single-cell isolation was carried out, and the function of immune regulation in the spleen was investigated via flow cytometry. As a result, it was confirmed that in the group in which Compound A was administered CD4^+CD25^+Foxp3^+ regulatory T cells were increased.

SMILES: O=S1(=O)CCN(Cc2cc(NC3CCOCC3)c3[nH]c(-c4ccccc4)cc3c2)CC1 [Compound A, (tetrahydropyran-4-yl)-[2-phenyl-5-(1,1-dioxo-thiomorpholin-4-yl)methyl-1H-indol-7-yl]amine]
- survival rate (GVHD mouse model; 0.3 or 1 mg/kg (FIG. 2), compared with non-treated group): considerably increased
- body weight (GVHD mouse model; FIGS. 1 and 2): significant results
- graft-versus-host reaction (GVHD clinical score) (GVHD mouse model; FIGS. 1 and 2): significant results
- generation ratio of reactive oxygen species in cells [1]: significantly suppressed
- release (expression) of HMGB1 (HMGB1): significantly suppressed
- increase of CD4+CD25+Foxp3+ immune regulatory cells (regulatory T cells) ([2]; compared with control group): ≥ 6 times
- CD4+IFN-γ ([2]; vs control group): decreased by more than half
- CD4+IL-4 cells ([2]; vs control group): increased
- differentiation into regulatory T cells ([3]; CD4+ T cells with aCD3, aCD28, TGF-beta, 40 μM and 80 μM): increased in a Compound A concentration-dependent manner
- expression of Foxp3+ ([3]; CD4+ T cells with aCD3, aCD28, TGF-beta, 40 μM and 80 μM, 3 days, vs control without Compound A): nearly doubled
- expression of Foxp3+ (alone or in combination) ([3]; aCD3, aCD28, TGF-beta, Compound A 40 or 80 μM, RA 0.1 μM, retinal 1 μM): increased to a similar extent to the case of treating retinal or RA
- regulatory T cells [4]: increased according to the concentration of Compound A
- CD4+CD25+Foxp3+ regulatory T cells [5]: increased
